Measurements taken from paper PMC6478789, “A chemical toolbox for the study of bromodomains and epigenetic signaling” (Nature Communications, 2019).

How the values were obtained:
Test in all cases: Methyl transferase scintillation proximity assay
Format in all cases: biochemical
Settings in all cases: average of two measurements; for inhibition at 10 µM: read-out: MTases Inhibition (%)
ASH1L = molecular target: T1, ASH1L (Homo sapiens, UniProt Q9NR48)
T1 construct: purchased DiscoverX BROMOscan (bromodomains); SGC in-house methyltransferase panel
Description: (§1) Assays measuring lysine and arginine methyl transferase activity have been described in Scheer et al.. A radioactivity-based scintillation proximity assay was used to monitor incorporation of a tritium-labeled methyl group into the biotinylated substrate of the methyl transferase. A 10-μl reaction containing ^3H-SAM and substrate at concentrations close to the apparent Km values for each enzyme was prepared. The reactions were quenched with 10 μl of 7.5 M guanidine hydrochloride; 180 μl of 20 mM Tris buffer (pH 8.0) were added; and the mixture was transferred to a 96-well FlashPlate and incubated for 1 h. The counts per minute (CPM) was measured on a TopCount plate reader. The CPM in the absence of compound or enzyme was defined as 100% activity and background (0%), respectively, for each dataset.

MLL1 (Trimeric) = molecular target: T2, MLL1 (Trimeric) (Homo sapiens, UniProt Q03164)
T2 construct: purchased DiscoverX BROMOscan (bromodomains); SGC in-house methyltransferase panel
Description: as §1

SMYD2 = molecular target: T3, SMYD2 (Homo sapiens, UniProt Q9NRG4)
T3 construct: purchased DiscoverX BROMOscan (bromodomains); SGC in-house methyltransferase panel
T3 sequence (Q9NRG4 whole entry): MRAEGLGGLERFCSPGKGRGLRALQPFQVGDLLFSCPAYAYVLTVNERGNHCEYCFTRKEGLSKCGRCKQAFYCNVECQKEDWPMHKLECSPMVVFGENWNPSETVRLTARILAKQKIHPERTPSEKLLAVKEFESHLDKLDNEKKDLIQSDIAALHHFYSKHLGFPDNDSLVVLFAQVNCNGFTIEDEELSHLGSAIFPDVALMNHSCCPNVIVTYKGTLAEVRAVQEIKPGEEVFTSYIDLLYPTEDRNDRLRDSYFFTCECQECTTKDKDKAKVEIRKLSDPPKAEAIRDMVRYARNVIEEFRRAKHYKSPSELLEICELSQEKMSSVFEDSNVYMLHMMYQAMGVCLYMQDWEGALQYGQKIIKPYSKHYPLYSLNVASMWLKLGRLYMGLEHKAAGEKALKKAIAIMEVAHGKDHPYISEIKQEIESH
Description: as §1

PRMT1 = molecular target: T4, PRMT1 (Homo sapiens, UniProt Q99873)
T4 construct: purchased DiscoverX BROMOscan (bromodomains); SGC in-house methyltransferase panel
T4 sequence (Q99873 whole entry): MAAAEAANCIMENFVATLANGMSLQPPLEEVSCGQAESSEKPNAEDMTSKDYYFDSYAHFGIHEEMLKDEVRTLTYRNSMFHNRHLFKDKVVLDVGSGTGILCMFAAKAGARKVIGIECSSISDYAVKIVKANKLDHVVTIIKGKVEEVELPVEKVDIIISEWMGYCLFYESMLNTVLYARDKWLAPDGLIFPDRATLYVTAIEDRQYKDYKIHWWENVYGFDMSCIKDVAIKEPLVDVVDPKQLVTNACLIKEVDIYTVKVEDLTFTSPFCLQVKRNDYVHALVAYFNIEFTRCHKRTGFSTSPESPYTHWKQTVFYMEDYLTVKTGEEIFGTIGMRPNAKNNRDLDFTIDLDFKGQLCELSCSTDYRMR
Description: as §1

DNMT3B/3L = molecular target: T5, DNMT3B/3L (Homo sapiens, UniProt Q9UBC3)
T5 construct: purchased DiscoverX BROMOscan (bromodomains); SGC in-house methyltransferase panel
Description: as §1

G9A = molecular target: T6, G9A (Homo sapiens, UniProt Q96KQ7)
T6 construct: purchased DiscoverX BROMOscan (bromodomains); SGC in-house methyltransferase panel
T6 sequence (Q96KQ7 1-1210): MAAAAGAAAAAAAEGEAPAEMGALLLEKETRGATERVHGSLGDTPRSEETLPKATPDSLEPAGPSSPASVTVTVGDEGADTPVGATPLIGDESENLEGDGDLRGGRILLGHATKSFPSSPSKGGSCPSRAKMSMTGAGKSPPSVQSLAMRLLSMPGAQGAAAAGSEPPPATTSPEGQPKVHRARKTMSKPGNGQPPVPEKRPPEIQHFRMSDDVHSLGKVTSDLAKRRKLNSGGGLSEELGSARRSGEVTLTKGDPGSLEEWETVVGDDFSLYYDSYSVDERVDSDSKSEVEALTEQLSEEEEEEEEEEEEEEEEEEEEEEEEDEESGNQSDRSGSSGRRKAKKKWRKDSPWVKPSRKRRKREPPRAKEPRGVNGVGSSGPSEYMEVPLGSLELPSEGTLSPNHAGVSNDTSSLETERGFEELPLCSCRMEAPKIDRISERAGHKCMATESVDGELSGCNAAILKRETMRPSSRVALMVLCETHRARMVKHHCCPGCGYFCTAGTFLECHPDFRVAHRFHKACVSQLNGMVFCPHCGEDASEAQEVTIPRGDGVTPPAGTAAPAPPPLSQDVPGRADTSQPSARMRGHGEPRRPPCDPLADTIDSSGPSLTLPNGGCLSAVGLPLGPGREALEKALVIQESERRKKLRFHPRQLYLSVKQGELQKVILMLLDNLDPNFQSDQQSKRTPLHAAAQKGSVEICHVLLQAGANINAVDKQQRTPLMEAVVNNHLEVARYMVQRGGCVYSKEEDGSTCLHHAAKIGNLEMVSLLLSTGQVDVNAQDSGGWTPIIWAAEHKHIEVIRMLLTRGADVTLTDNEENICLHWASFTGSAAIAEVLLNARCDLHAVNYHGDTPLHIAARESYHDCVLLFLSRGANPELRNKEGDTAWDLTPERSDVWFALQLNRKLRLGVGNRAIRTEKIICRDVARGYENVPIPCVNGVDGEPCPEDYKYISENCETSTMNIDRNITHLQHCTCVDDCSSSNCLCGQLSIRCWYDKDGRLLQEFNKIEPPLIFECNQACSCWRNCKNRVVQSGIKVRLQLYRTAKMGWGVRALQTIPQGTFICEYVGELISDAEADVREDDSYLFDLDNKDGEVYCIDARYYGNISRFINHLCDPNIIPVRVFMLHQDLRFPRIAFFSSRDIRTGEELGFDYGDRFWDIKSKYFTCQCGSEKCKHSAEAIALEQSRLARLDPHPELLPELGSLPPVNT
Description: as §1

inhibition at 10 µM (ASH1L) | inhibition at 10 µM (MLL1 (Trimeric)) | inhibition at 10 µM (SMYD2) | inhibition at 10 µM (PRMT1) | inhibition at 10 µM (DNMT3B/3L) | inhibition at 10 µM (G9A) | MTases Inhibition (%) (ASH1L; 10µM) | MTases Inhibition (%) (MLL1 (Trimeric); 10µM) | MTases Inhibition (%) (SMYD2; 10µM) | MTases Inhibition (%) (PRMT1; 10µM) | MTases Inhibition (%) (DNMT3B/3L; 10µM) | MTases Inhibition (%) (G9A; 10µM) | SMILES
-6% | 7% | 8% | 0% | -6% | 3% | – | – | – | – | – | – | Cc1c(NC(=O)c2cc(C(N)=O)nc3cc(F)ccc23)c(C(F)(F)F)nn1Cc1ccc(C(C)(C)C)cc1 [BAY-588]
3% | -1% | 19% | 15% | 28% | 7% | – | – | – | – | – | – | COc1cc(Cl)c(C(=O)N[C@@H](CN[C@H]2CC[C@@H](N)CC2)Cc2ccc(C#N)cc2)cc1-c1ccc(CN[C@H](C)c2ccc(C)cc2)o1 [BAY-850]
4% | 11% | -10% | 2% | 1% | -3% | – | – | – | – | – | – | Cc1c(NC(=O)c2cc(C(N)=O)nc3cc(F)ccc23)c(C(F)(F)F)nn1Cc1ccc(C#N)cc1 [BAY-876]
13% | 8% | 2% | 4% | 1% | 1% | – | – | – | – | – | – | CN1C[C@H](Nc2cnn(C)c(=O)c2Br)C[C@H](c2ccccc2)C1 [GSK4027]
– | – | – | – | – | – | 4% | 7% | -3% | -7% | 8% | -2% | COc1ccccc1C(=O)Nc1cc2c(cc1N1CCNC[C@H]1C)n(C)c(=O)n2C [GSK6853]
2% | 6% | -2% | 3% | 18% | -2% | – | – | – | – | – | – | CO[C@H]1CNC[C@@H](OCC2CCC(F)(F)CC2)[C@@H]1Nc1ncc(-c2cncc(C)c2)c2cc(C)c(=O)[nH]c12 [GSK8814]
-3% | 20% | -10% | -2% | -1% | -3% | – | – | – | – | – | – | Cc1nnc2c3ccccc3c(N[C@@H](C)[C@H](c3ccccc3)N(C)C)nn12 [L-Moses]
-4% | 17% | -2% | 0% | 0% | 7% | – | – | – | – | – | – | CN(C)CCCOc1ccc(-c2cc(NCCCn3cccn3)nc(S(C)(=O)=O)n2)cc1 [TP-238]
